Source: patent publication US20210333284A1, “METHODS AND MATERIALS FOR LARGE-SCALE ASSESSMENT OF LIGAND BINDING SELECTIVITY OF G-QUADRUPLEX RECOGNITION USING CUSTOM G4 MICROARRAYS” (Purdue Research Foundation, priority 2020, published 2021)

Key:
[1] = tested on: PDGF-A_Pu48, MYB, Bcl-2_P1G4 and Bcl2_55G G4 sequences; assay: G4 microarray competition with Cy5-PDS, other oncogene promoter G4s; type: binding, human
Description: Custom G4 microarrays have been designed that contain a total of 19,249 G4 DNA sequences [31, the entirety of disclosure of which, including the supplemental information, is incorporated herein by reference]. The G4 microarrays were created by covalently attaching thousands of unique G4-forming DNA 60-mers to a glass surface. Pyridostatin (PDS) is a known G4-interactive compound. […] To test the binding selectivity of BMVC, competition experiments using custom G4 microarrays were performed. The addition of potassium-containing solution to G4-forming oligonucleotides induced G4 formation. Subsequently, the microarrays were incubated with 1 μM Cy5-PDS in the absence or presence of 1 μM, 3 μM, or 10 μM of the unlabeled BMVC molecule. After washing to remove the unbound Cy5-PDS and BMVC, the fluorescence intensities of Cy5-PDS bound to DNA oligonucleotides were detected using a fluorescence scanner. The binding selectivity of BMVC to different G4 structures was assessed by measuring the relative fluorescence intensity reduction of Cy5-PDS as BMVC concentration increased.
To determine the G4-binding selectivity of BMVC, the BMVC binding to known G4 structures was examined, including 7 well-studied MYC promoter G4 sequences, 15 other oncogene promoter G4 sequences, and 3 human telomeric G4 sequences (TABLE 4). BMVC competes with the binding of Cy5-PDS to most G4 sequences in a dose-dependent manner as indicated by reduced fluorescence intensities (FIG. 8a).
DNA Microarray Binding Experiments DNA microarray experiments were performed and analyzed as described previously. Microarrays were preincubated with a pH 7.4 phosphate buffer solution with 100 mM potassium for 1 h at room temperature to induce G4 formation. […]
Data Processing and Analysis Molecule-bound microarrays were scanned with an Agilent G5761A SureScan Dx Microarray Scanner System to detect Cy5 signal at two laser settings (30 and 100 PMT). Spot intensities from microarray images were extracted using Agilent Feature Extraction Software and are reported as raw fluorescence intensities. […]

[2] = tested on: G4 sequences on custom G4 microarray; assay: G4 microarray competition of unlabeled molecule with Cy5-PDS; type: binding, human
Source text: Whether the microarray platform could be used to reveal the G4-binding specificity of unlabeled molecules via a competition with Cy5-PDS binding was explored. Three example molecules, unlabeled PDS, TMPyP4 (a planar molecule that nonspecifically binds G4 structures^14), and DC-34 (a molecule that selectively binds the MYC G4^15) were examined. […] The binding of unlabeled DC-34 was examined (FIG. 4). There appear to be no features that are better-bound in the presence of DC-34. […] This is consistent with the observation that DC-34 binds the top and bottom surfaces of the G4 and makes specific contacts with purines in the tail sequences.^15 The general properties of features in which DC-34 reduced binding of Cy5-PDS (ratio of PDS/PDS+DC-34) were also examined.
Microarrays were preincubated with a 100 mM potassium chloride solution for 1 h at RT to induce G4 formation. Protein binding microarray experiments were then performed as previously described.^23 Microarrays were blocked with 4% nonfat dry milk in a potassium phosphate buffer before incubation with proteins or small molecules. Expressed proteins were blocked with 4% nonfat dry milk, ssDNA, and BSA. For the validation experiments, microarrays were also treated with 100 mM lithium chloride to inhibit G4 formation. For experiments examining dsDNA, single-stranded DNA probes were made double-stranded using a primer complementary to a 24-mer constant sequence following the method described previously.^23,24 Double stranding efficiency was monitored using 4% Cy3-dCTP.
Protein or molecule-bound microarrays were scanned with the G5761A SureScan Dx Microarray Scanner System (Agilent) to detect a Cy5 signal at two laser settings (30 and 100 PMT) to ensure signal intensities were below saturation. Spot intensities from microarray images were extracted using the Agilent Feature Extraction Software and are reported as raw fluorescence units. All binding assays were performed at least twice, with high agreement between replicates (R>0.8). Microarrays with the fewest number of saturated spots were used for further analysis. […] The measured array data (Design 3, PDS) and predictions were normalized using the following
Custom G4 microarrays have been designed that contain a total of 19,249 G4 DNA sequences [31, the entirety of disclosure of which, including the supplemental information, is incorporated herein by reference]. […] After washing to remove the unbound Cy5-PDS and BMVC, the fluorescence intensities of Cy5-PDS bound to DNA oligonucleotides were detected using a fluorescence scanner. The binding selectivity of BMVC to different G4 structures was assessed by measuring the relative fluorescence intensity reduction of Cy5-PDS as BMVC concentration increased. […]

- binding to Bcl2_55G ([1]; competition with Cy5-PDS): good binding
- binding to Bcl-2_P1G4 ([1]; competition with Cy5-PDS, compared with Bcl2_55G): markedly weaker
- binding to PDGF-A_Pu48 and MYB sequences relative to Cy5-PDS ([1]; equimolar competition): much weaker
- binding selectivity profile to different G4 sequences ([2]; 1 μM unlabeled ligand and 1 μM Cy5-PDS): more pronounced binding selectivity
SMILES: C[n+]1ccc(/C=C/c2ccc3[nH]c4ccc(/C=C/c5cc[n+](C)cc5)cc4c3c2)cc1.[I-].[I-] [BMVC, 3,6-Bis(1-methyl-4-vinylpyridinium) carbazole diiodide]
- reduction of fluorescence intensity of Cy5-PDS ([2]; most known G4s, 1 μM Cy5-PDS, equimolar (1 μM) BMVC): 50%
